Results reported in paper PMC6522510 (Nature Communications, 2019).
Where a name gives a salt, the structure may show the parent alone. Read-outs that look alike come from different tables or passages of the source.

Legend:
Set-up in all cases: species or system AML cell lines (8); Primary HTS, single concentration about 10 uM, Cell Titer Glo viability; log10 luminescence, per cent inhibition relative to cycloheximide control
Conditions in all cases: 72 h, relative to cycloheximide control, log10 luminescence, inhibitor
CMK = tested on: CMK
CHRF288-11 = tested on: CHRF288-11
MV4-11 = tested on: MV4-11
CMS = tested on: CMS
ML-2 = tested on: ML-2
U937 = tested on: U937
M07e = tested on: M07e
MOLM-13 = tested on: MOLM-13

Compound	CMK %inh (CMK; CMK %inh, 10 µM)	CHRF288-11 %inh (CHRF288-11; CHRF288-11 %inh, 10 µM)	MV4-11 %inh (MV4-11; MV4-11 %inh, 10 µM)	CMS %inh (CMS; CMS %inh, 10 µM)	ML-2 %inh (ML-2; ML-2 %inh, 10 µM)	U937 %inh (U937; U937 %inh, 10 µM)	M07e %inh (M07e; M07e %inh, 10 µM)	MOLM-13 %inh (MOLM-13; MOLM-13 %inh, 10 µM)	CMK %inh (CMK)	CHRF288-11 %inh (CHRF288-11)	MV4-11 %inh (MV4-11)	CMS %inh (CMS)	ML-2 %inh (ML-2)	U937 %inh (U937)	M07e %inh (M07e)	MOLM-13 %inh (MOLM-13)
OC[C@H]1O[C@@H](O[C@@H]2[C@@H](CO)OC(O)(CO)[C@H]2O)[C@H](O)[C@@H](O)[C@H]1O (mixture of isomers) [SJ000285579-3, LACTULOSE]	-4.096%	0.1599%	0.8098%	-1.064%	-0.1648%	-0.7505%	2.568%	2.867%	–	–	–	–	–	–	–	–
OC[C@H]1O[C@@H](O[C@@H]2[C@@H](CO)OC(O)(CO)[C@H]2O)[C@H](O)[C@@H](O)[C@H]1O (mixture of isomers) [SJ000285579-4, LACTULOSE]	0.6173%	2.769%	2.037%	-0.8505%	-0.9858%	1.171%	8.809%	5.87%	–	–	–	–	–	–	–	–
NC[C@H](CC(=O)O)c1ccc(Cl)cc1 (racemic) [SJ000285686-7, BACLOFEN | (R,S)-BACLOFEN | (±)-BACLOFEN | LIORESAL]	–	–	–	–	–	–	–	–	21.33%	-1.195%	2.346%	7.511%	2.059%	5.766%	-0.3712%	8.873%
CCOC(=O)C1=C(C)NC(C)=C(C(=O)OC)C1c1cccc(Cl)c1Cl (single isomer, unassigned) [SJ000287293-6, FELODIPINE]	32.28%	40.78%	5.092%	3.783%	0.03711%	12.66%	5.04%	23.61%	–	–	–	–	–	–	–	–
CCOC(=O)C1=C(C)NC(C)=C(C(=O)OC)C1c1cccc(Cl)c1Cl (single isomer, unassigned) [SJ000287293-7, FELODIPINE]	36.03%	33.72%	12.83%	-2.469%	2.538%	12.4%	7.937%	16.76%	–	–	–	–	–	–	–	–
C[C@]12CC[C@@H]3c4ccc(O)cc4C[C@@H](CCCCCCCCC[S+]([O-])CCCC(F)(F)C(F)(F)F)[C@H]3[C@@H]1CC[C@@H]2O (single isomer, unassigned) [SJ000288293-3, FULVESTRANT | FULVESTRANT| FASLODEX | FASLODEX (ICI 182,780)]	-2.659%	4.612%	13.25%	2.454%	2.01%	-0.5617%	3.741%	-2.461%	–	–	–	–	–	–	–	–
C[C@]12CC[C@@H]3c4ccc(O)cc4C[C@@H](CCCCCCCCC[S+]([O-])CCCC(F)(F)C(F)(F)F)[C@H]3[C@@H]1CC[C@@H]2O (single isomer, unassigned) [SJ000288293-4, FULVESTRANT | FULVESTRANT| FASLODEX | FASLODEX (ICI 182,780)]	-2.475%	-3.752%	6.552%	2.909%	1.626%	-1.083%	2.696%	-1.784%	–	–	–	–	–	–	–	–
O=[N+]([O-])c1ccc(Oc2ccc(Br)cc2)c(C(O)P(=O)(O)O)c1 (single isomer, unassigned) [SJ000312207-2, RWJ-60475]	0.9236%	1.479%	4.34%	0.5647%	0.244%	1.53%	-2.334%	9.917%	–	–	–	–	–	–	–	–
O=[N+]([O-])c1ccc(Oc2ccc(Br)cc2)c(C(O)P(=O)(O)O)c1 (single isomer, unassigned) [SJ000312207-3, RWJ-60475]	2.859%	-1.978%	2.215%	-0.822%	4.625%	3.171%	1.458%	10.73%	–	–	–	–	–	–	–	–
Clc1ccc(C(Cn2ccnc2)OCc2ccsc2Cl)c(Cl)c1 (single isomer, unassigned) [SJ000556739-1, TIOCONAZOLE]	41.48%	35.73%	16.99%	7.938%	9.708%	20.14%	14.34%	23.12%	–	–	–	–	–	–	–	–
Clc1ccc(C(Cn2ccnc2)OCc2ccsc2Cl)c(Cl)c1 (single isomer, unassigned) [SJ000556739-2, TIOCONAZOLE]	43.08%	62.31%	16.77%	5.318%	3.315%	5.367%	7.997%	22.63%	–	–	–	–	–	–	–	–
Cc1cc(NS(=O)(=O)c2ccc(N)cc2)no1 [SJ000285603-4, SULFAMETHOXAZOLE]	–	–	–	–	–	–	–	–	-0.9998%	6.539%	0.1304%	-0.6486%	–	-2.098%	0.538%	-2.87%
CC(=O)N(O)CCCCCNC(=O)CCC(=O)N(O)CCCCCNC(=O)CCC(=O)N(O)CCCCCN [SJ000285725-4, DEFEROXAMINE MESYLATE]	–	11.08%	2.029%	42.04%	7.19%	–	6.608%	17.22%	16.85%	–	–	–	–	–	–	–
C[C@H]1O[C@@H](O[C@H]2[C@@H](O)C[C@H](O[C@H]3[C@@H](O)C[C@H](O[C@H]4CC[C@@]5(C)[C@H](CC[C@@H]6[C@@H]5C[C@@H](O)[C@]5(C)[C@@H](C7=CC(=O)OC7)CC[C@]65O)C4)O[C@@H]3C)O[C@@H]2C)C[C@H](O)[C@@H]1O [SJ000285739-7, DIGOXIN]	–	112.6%	73.33%	94.04%	58.17%	-15.97%	–	85.14%	–	–	–	–	–	–	–	–
Cc1cnc(C(=O)NCCc2ccc(S(=O)(=O)NC(=O)NC3CCCCC3)cc2)cn1 [SJ000287188-5, GLIPIZIDE]	–	–	–	–	–	–	–	–	3.258%	-3.512%	-0.3606%	1.05%	–	0.1954%	3.86%	17.27%
C[N+]1(C)CCC(OC(=O)C(O)(c2ccccc2)C2CCCC2)C1 (stereo not drawn) [SJ000287387-2, GLYCOPYRROLATE]	–	–	–	–	–	–	–	–	-4.149%	7.948%	0.8412%	-3.738%	–	2.372%	3.68%	6.707%
CN(CCOc1ccc(NS(C)(=O)=O)cc1)CCc1ccc(NS(C)(=O)=O)cc1 [SJ000555707-1, DOFETILIDE]	–	–	–	–	–	–	–	–	10.12%	-0.9409%	4.51%	–	3.818%	5.896%	3.914%	10.35%
